The target of experiment [1] is T1, mu-type opioid receptor (Rattus norvegicus, UniProt P33535).
T1 construct: using rat forebrain membranes; from tissue; host or cells: rat forebrain membranes
The experiment is described as follows: inhibition of specific [^3 H] DAGO binding to rat forebrain membranes. On the procedure: (§1) The interaction of some of the novel compounds with mu and delta-type opioid receptors present in brain membranes was examined in vitro. […] DAGO (mu-type receptor) or [^3 H] DADLE (delta-type receptor) was determined using rat forebrain membranes. Computer assisted analysis (EBDA) was used to determine apparent Ki values for the various compounds.
(§2) Values represent the MEAN±S.E.M. of the Ki(nM) for each compound to inhibit specific binding of the indicated ligand to rat brain membranes. The values are from two-five separate experiments and were calculated according to the method of Cheng and Prusoff [Biochem. Pharmacol. 1973, 22, 3099-3108] together with the EBDA Program. Numbers in parentheses are the mean Hill coefficients for each compound to inhibit ligand binding.
(§3) Values represent the MEAN±S.E.M. of the Ki(nM) for each compound to inhibit specific binding of the indicated ligand to rat brain membranes. The values are from two.div.seven separate experiments and were calculated according to the method of Cheng and Prusoff together with the EBDA program. Numbers in parentheses are the mean Hill coefficients for each compound to inhibit ligand binding. N.D.=not determined
(§4) The interaction of some of the novel compounds with mu, delta and kappa - type opioid receptors present in brain membranes was examined in vitro. […] DAGO (mu-type receptor), or [^3 H] DADLE (Delta-type receptor) using rat forebrain membranes and [^3 H] EKC (kappa-type receptor) using guiniea pig cerebellum membrane was determined. Computer assisted analysis (EBDA) was used to determine apparent Ki values for the various compounds.
(§5) The values represent the MEAN±S.E.M. of the Ki(nM) for each compound to inhibit specific binding of the indicated ligand. Each value represents the mean of three individual experiments performed on separate occasions.

Experiment [2] addresses delta-type opioid receptor (Rattus norvegicus, UniProt P33533). The experiment is described as follows: inhibition of specific [^3 H] DADLE binding to rat forebrain membranes. As to the method:
as §1, §2, §3, §4, §5

Experiment [3] addresses T2, kappa-type opioid receptor (Cavia porcellus, UniProt P41144).
T2 construct: using guiniea pig cerebellum membrane; from tissue; host or cells: guinea pig cerebellum membranes
The experiment is described as follows: inhibition of specific [^3 H] EKC binding to guinea pig cerebellum membrane. On the procedure:
as §4, §5

In experiment [4] the test system is oxymorphonazine (OMZ)-induced analgesia. The experiment is described as follows: antagonism of oxymorphonazine (OMZ)-induced analgesia (tail flick) in rats. The format is in vivo, rat. Conditions: S.C.; for ED50 / ED100: Rattus norvegicus, sc, Table 8; for ED50: read-out: ED 50, oxymorphonazine antagonism; for ED100: read-out: ED 100, oxymorphonazine antagonism; for Percent Antagonism at 1 Hr / Percent Antagonism at 1.5 Hr / Percent Antagonism at 2 Hr / Percent Antagonism at 3 Hr / Percent Antagonism at 4 Hr / Percent Antagonism at 6 Hr / Percent Antagonism at 8 Hr: dose tested (mg/kg): Naltrexone 0.5, Nalmefene 1.0, XI 10.0, XII 2.5, XIII 0.5, XIV 5.0. As to the method:
The compound of Example XII was evaluated for its potency and duration in the antagonism of oxymorphonazine (OMZ)-induced analgesia. […] Data represent the mean SEM of 4-5 animals per group.
(Cowan A. Trendsin Pharmacology Science, 7:69-72, 1986) With this test the intracerebroventricular administration of bombesin produces a characteristic scratching response.

Where [5] appears, read: Ki, inhibition of specific [^3 H] DAGO binding, Tables 1 and 2, rat brain membranes, MEAN±S.E.M.
The mark [6] stands for this setting: read-out: Ki, inhibition of specific [^3 H] DADLE binding, Tables 1 and 2, rat brain membranes, MEAN±S.E.M.
[7] abbreviates: (Ki) nM, μ receptor (Rat Forebrain), Table 6, [^3 H] DAGO, mean of three experiments.
Where [8] appears, read: read-out: (Ki) nM, δ receptor (Rat Forebrain), Table 6, [^3 H] DADLE, mean of three experiments.

The values that follow come from US4889860A (Nova Pharmaceutical Corporation, priority 1987, dated 1989).

Each structure is given as a SMILES string. Like-named read-outs stand apart in the source and are kept apart here.

T1 sequence (P33535 whole entry): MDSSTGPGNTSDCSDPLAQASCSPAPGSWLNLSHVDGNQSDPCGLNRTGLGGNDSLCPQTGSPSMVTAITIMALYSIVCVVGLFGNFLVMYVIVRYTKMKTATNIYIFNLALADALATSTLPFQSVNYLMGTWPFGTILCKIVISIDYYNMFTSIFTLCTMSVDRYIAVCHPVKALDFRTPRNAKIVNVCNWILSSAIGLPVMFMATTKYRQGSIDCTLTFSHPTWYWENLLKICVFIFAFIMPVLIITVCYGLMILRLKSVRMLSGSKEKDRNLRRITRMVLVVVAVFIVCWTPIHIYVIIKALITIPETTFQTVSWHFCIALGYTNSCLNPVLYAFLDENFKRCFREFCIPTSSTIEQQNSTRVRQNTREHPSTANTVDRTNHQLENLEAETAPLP
delta-type opioid receptor, sequence (P33533 whole entry): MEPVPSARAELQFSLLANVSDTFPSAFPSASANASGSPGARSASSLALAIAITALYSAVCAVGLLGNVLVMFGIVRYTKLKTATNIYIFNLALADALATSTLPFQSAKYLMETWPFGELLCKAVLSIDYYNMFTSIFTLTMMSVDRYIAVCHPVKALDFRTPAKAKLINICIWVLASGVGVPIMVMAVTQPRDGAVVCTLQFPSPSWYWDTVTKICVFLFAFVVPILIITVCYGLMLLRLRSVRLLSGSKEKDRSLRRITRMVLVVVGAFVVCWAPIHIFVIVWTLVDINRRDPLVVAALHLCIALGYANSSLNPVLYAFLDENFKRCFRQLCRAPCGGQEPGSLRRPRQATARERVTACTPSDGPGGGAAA
T2 sequence (P41144 whole entry): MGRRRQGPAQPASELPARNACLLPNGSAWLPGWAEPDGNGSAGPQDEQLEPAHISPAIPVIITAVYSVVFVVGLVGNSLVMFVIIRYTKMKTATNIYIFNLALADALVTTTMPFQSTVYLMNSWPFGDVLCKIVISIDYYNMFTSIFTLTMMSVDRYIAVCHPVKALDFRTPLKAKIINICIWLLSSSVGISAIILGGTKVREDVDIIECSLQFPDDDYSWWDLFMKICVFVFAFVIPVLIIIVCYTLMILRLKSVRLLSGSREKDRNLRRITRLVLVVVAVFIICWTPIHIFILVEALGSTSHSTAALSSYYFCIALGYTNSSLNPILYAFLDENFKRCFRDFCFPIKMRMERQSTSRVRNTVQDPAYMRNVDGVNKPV

What is called Ki is a dissociation constant, usually derived from enzyme kinetics or from competition with a known ligand. Regarding `CON=C1CC[C@@]2(O)[C@H]3Cc4ccc(O)c5c4[C@@]2(CCN3C)[C@H]1O5` [Example II, 6-Methyloximino-17-methyl-4,5 α-epoxy-3, 14-dihydroxymorphinan], the Ki in experiment [1] (setting [5]) was 0.97 ± 0.1 nM; in experiment [2] (setting [6]) it was 3.44 ± 0.83 nM.

Consider `ON=C1CC[C@@]2(O)[C@H]3Cc4ccc(O)c5c4[C@@]2(CCN3CC2CC2)[C@H]1O5` [Example IX, 6-Oximino-17-cyclopropylmethyl-4,5 α-epoxy-3, 14-dihydroxymorphinan], for which the Ki was 0.24 nM in experiment [1] (setting [7]); 0.24 ± 0.03 nM in experiment [1] (Tables 1 and 2, rat brain membranes, MEAN±S.E.M., read-out: Ki, inhibition of specific [^3 H] DAGO binding); 1.64 nM in experiment [2] (setting [8]); 2.05 nM in experiment [3]. Also, the “mean Hill coefficient, [^3 H] DAGO binding” value in experiment [1] (Tables 1 and 2, numbers in parentheses) is recorded as 0.81. In experiment [1] (than compound of Example X or XI, or naltrexone), the “fold more potent to inhibit specific [^3 H]DAGO binding” value is listed as 3 fold.

Turning to `CON=C1CC[C@@]2(O)[C@H]3Cc4ccc(O)c5c4[C@@]2(CCN3CC2CC2)[C@H]1O5` [Example X, 6-Methyloximino-17-cyclopropylmethyl-4,5 α-epoxy-3, 14-dihydroxymorphinan], the Ki is 0.66 ± 0.06 nM in experiment [1] (setting [5]) and 1.8 ± 0.22 nM in experiment [2] (setting [6]).

With `Oc1ccc2c3c1O[C@H]1C(=NOCc4ccccc4)CC[C@@]4(O)[C@@H](C2)N(CC2CC2)CC[C@]314` [Example XI, 6-Benzyloximino-17-cyclopropylmethyl-4, 5 α-epoxy-3, 14-dihydroxymorphinan], in experiment [4], the ED50 is 1.2 mg/kg, the ED100 came to 13 mg/kg, the “Percent Antagonism at 1 Hr” value was 72% and the “Percent Antagonism at 1.5 Hr” value is recorded as 86%. Moreover, in experiment [4], the “Percent Antagonism at 2 Hr” value came out at 91%, the “Percent Antagonism at 3 Hr” value is 93%, the “Percent Antagonism at 4 Hr” value was 103% and the “Percent Antagonism at 6 Hr” value is listed as 122%. The “Percent Antagonism at 8 Hr” value in experiment [4] came to 64%. For the same molecule, the affinity in experiment [1] (setting [7]), expressed as Ki, was 0.55 nM. Moreover, the Ki in experiment [1] (setting [5]) is 0.55 ± 0.12 nM. Also, the Ki in experiment [2] (setting [8]) amounted to 0.87 nM. For the same molecule, the Ki in experiment [2] (setting [6]) was determined as 0.7 ± 0.22 nM.

Regarding `Cc1ccc(ON=C2CC[C@@]3(O)[C@H]4Cc5ccc(O)c6c5[C@@]3(CCN4CC3CC3)[C@H]2O6)cc1C` [Example XIII, 6-[3,4-dimethylphenyl]oximino-17-cyclopropylmethyl-4,5α-epoxy-3,14-dihydroxymorphinan], in experiment [4], the ED50 is 0.09 mg/kg, the ED100 came out at 0.74 mg/kg, the “Percent Antagonism at 1 Hr” value turned out to be 77% and the “Percent Antagonism at 1.5 Hr” value is given as 72%. In addition, in experiment [4], the “Percent Antagonism at 2 Hr” value is reported as 67%, the “Percent Antagonism at 3 Hr” value was found to be 79%, the “Percent Antagonism at 4 Hr” value is given as 72% and the “Percent Antagonism at 6 Hr” value is 71%. Further, the “Percent Antagonism at 8 Hr” value in experiment [4] amounted to 97%. In experiment [1] (setting [7]), this molecule yielded a Ki of 1.64 nM. Also, the Ki in experiment [2] (setting [8]) worked out at 2.69 nM.

Consider `Oc1ccc2c3c1O[C@H]1C(=NOC4CCCc5ccccc54)CC[C@@]4(O)[C@@H](C2)N(CC2CC2)CC[C@]314` (stereo partly drawn) [Example XIV, 6-[1,2,3,4-tetrahydronaphth-1-yl]oximino-17-cyclopropylmethyl-4,5 α-epoxy-3,14-dihydroxymorphinan], for which, in experiment [4], the ED50 was determined as 0.02 mg/kg, the ED100 turned out to be 6.73 mg/kg, the “Percent Antagonism at 1 Hr” value came out at 80% and the “Percent Antagonism at 1.5 Hr” value is given as 84%. In addition, in experiment [4], the “Percent Antagonism at 2 Hr” value was found to be 82%, the “Percent Antagonism at 3 Hr” value turned out to be 84%, the “Percent Antagonism at 4 Hr” value is 83% and the “Percent Antagonism at 6 Hr” value is recorded as 41%. Also, the “Percent Antagonism at 8 Hr” value in experiment [4] was 20%. Affinity in experiment [1] (setting [7]) was put at a Ki of 2.76 nM. Besides, the Ki in experiment [2] (setting [8]) was 0.6 nM. In experiment [3], this molecule displayed a Ki of 4.66 nM.

For `Cc1cccc(ON=C2CC[C@@]3(O)[C@H]4Cc5ccc(O)c6c5[C@@]3(CCN4CC3CC3)[C@H]2O6)c1C` [Example XV, 6-[2,3-dimethylphenyl]oximino-17-cyclopropylmethyl-4,5 α-epoxy-3,14-dihydroxymorphinan], the Ki in experiment [1] (setting [7]) turned out to be 1.19 nM; in experiment [2] (setting [8]), 1.23 nM.

Regarding `Oc1ccc2c3c1O[C@H]1C(=NOc4ccc(C(F)(F)F)cc4)CC[C@@]4(O)[C@@H](C2)N(CC2CC2)CC[C@]314` [Example XVII, 6-[4-trifluoromethylphenyl]oximino-17-cyclopropylmethyl-4,5 α-epoxy-3,14-dihydroxymorphinan], the values for the Ki in experiment [1] (setting [7]) and in experiment [2] (setting [8]) were 26.4 nM and 34.4 nM, respectively.

Regarding `CC(C)(C)ON=C1CC[C@@]2(O)[C@H]3Cc4ccc(O)c5c4[C@@]2(CCN3CC2CC2)[C@H]1O5` [Example XVI], the Ki in experiment [1] (setting [7]) amounted to 1.01 nM; in experiment [2] (setting [8]), 0.41 nM; in experiment [3] it was 7.39 nM.

Take `N=C(N)c1ccc(ON=C2CC[C@@]3(O)[C@H]4Cc5ccc(O)c6c5[C@@]3(CCN4CC3CC3)[C@H]2O6)cc1` [Example XX, 6-[4-iminoaminomethylphenyl]oximino-17-cyclopropylmethyl-4,5 α-epoxy-3,14-dihydroxymorphinan]: the Ki in experiment [1] (read-out: (Ki) nM, μ receptor (Rat Forebrain), Table 6, [^3 H] DAGO, mean of three experiments) was 0.73 nM; in experiment [2] (setting [8]) it was 1.67 nM; in experiment [3] (read-out: (Ki) nM, κ receptor (GP Cerebellum), Table 6, [^3 H] EKC, mean of three experiments), 0.64 nM.

On to `O=C1c2ccccc2C(=O)N1Cc1ccc(ON=C2CC[C@@]3(O)[C@H]4Cc5ccc(O)c6c5[C@@]3(CCN4CC3CC3)[C@H]2O6)cc1` [Example XXI, 6-[4-phthalimidomethylphenyl]oximino-17-cyclopropylmethyl-4,5 α-epoxy-3,14-dihydroxymorphinan], for which the Ki in experiment [1] (setting [7]) was 7.35 nM; in experiment [2] (setting [8]) it was 2.57 nM; in experiment [3], 18 nM.

As for `NCc1ccc(ON=C2CC[C@@]3(O)[C@H]4Cc5ccc(O)c6c5[C@@]3(CCN4CC3CC3)[C@H]2O6)cc1` [Example XXIV, 6-[4-aminomethylphenyl]oximino-17-cyclopropylmethyl-4,5α-epoxy-3,14-dihydroxymorphinan], the Ki in experiment [1] (setting [7]) amounted to 0.34 nM; in experiment [2] (setting [8]) it was 1 nM; in experiment [3] it was 0.71 nM.

On to `Oc1ccc2c3c1O[C@H]1C(=NOC4CCCCC4)CC[C@@]4(O)[C@@H](C2)N(CC2CC2)CC[C@]314` [Example XXV, 6-cyclohexyloximino-17-cyclopropylmethyl-4,5 α-epoxy-3,14-dihydroxymorphinan], for which the Ki stood at 1.1 nM in experiment [1] (setting [7]), 0.08 nM in experiment [2] (setting [8]) and 9.76 nM in experiment [3].

On to `Oc1ccc2c3c1O[C@H]1C(=NOC4CCCC4)CC[C@@]4(O)[C@@H](C2)N(CC2CC2)CC[C@]314` [Example XXVI, 6-cyclopentyloximino-17-cyclopropylmethyl-4,5 α-epoxy-3,14-dihydroxymorphinan], for which the Ki in experiment [1] (setting [7]) was 0.52 nM; in experiment [2] (setting [8]) it was 0.04 nM; in experiment [3], 7.94 nM.

With `Oc1ccc2c3c1O[C@H]1C(=NOC45CC6CC(CC(C6)C4)C5)CC[C@@]4(O)[C@@H](C2)N(CC2CC2)CC[C@]314` [Example XXVII, 6-[1-adamantyl]oximino-17-cyclopropylmethyl-4,5 α-epoxy-3,14-dihydroxymorphinan], the results for the Ki in experiment [1] (setting [7]), in experiment [2] (setting [8]) and in experiment [3] were 5.39 nM, 2.63 nM and 6.41 nM, respectively.

For `Oc1ccc2c3c1O[C@H]1C(=NOc4ccccc4C(F)(F)F)CC[C@@]4(O)[C@@H](C2)N(CC2CC2)CC[C@]314` [XIX, 6-[2-trifluoromethylphenyl]oximino-17-cyclopropylmethyl-4,5 α-epoxy-3,14-dihydroxymorphinan], the Ki stood at 3.77 nM in experiment [1] (setting [7]) and 1.29 nM in experiment [2] (setting [8]).

In the case of `N#Cc1ccc(ON=C2CC[C@@]3(O)[C@H]4Cc5ccc(O)c6c5[C@@]3(CCN4CC3CC3)[C@H]2O6)cc1` [XVIII, 6-[4-cyanophenyl]oximino-17-cyclopropylmethyl-4,5α-epoxy-3,14-dihydroxymorphinan], the values for the Ki in experiment [1] (setting [7]), in experiment [2] (setting [8]) and in experiment [3] were 2.07 nM, 1.64 nM and 12.9 nM, respectively.
